Columns and labels:
[1] = Human liver microsome stability; format: in vitro ADME; conditions: 1 μM compound, NADPH 1 mM, 37° C., 0-60 min; for HLM Metabolism t1/2: pooled human liver microsomes 0.5 mg/mL; for half-life at 1 μM: human, pooled human liver microsomes, pH 7.4, pooled human liver microsomes 0.5 mg/mL, read-out: HLM Metabolism t1/2
In short: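 Single incubations with human liver microsomes started with 1 mM NADPH; samples taken at 0, 5, 10, 20, 40 and 60 min, quenched in acetonitrile (1:3). Cassette LC-MS analysis with internal standard; t½ derived from slope of ln peak-area ratio versus time (k = −gradient).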

HepG2 or HepG2.117 cells = test: Cytotoxicity, ATPlite Luminescence Assay; format: cell-based, human; conditions: 3-days incubation unless marked with *
In short: (§1)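 Viability after compound treatment is read as ATP luminescence. Exposure lasts 3 or 4 days.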

[2] = tested on: HBV (HepG2.117 cell line, inducibly HBV producing); test: Anti-HBV activity, intracellular HBV DNA by real-time PCR in HepG2.117 cell line; format: cell-based, hepatitis B virus; conditions: HepG2.117 cells, 3 days of treatment
In short: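 Read-out is intracellular HBV DNA, measured by real-time PCR using HBV-specific primers and probe. Cells were stable, inducible HBV-producing HepG2.117 (Tet-off). Serially diluted compound was applied for 3 days after replication was induced.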

[3] = Cytotoxicity, ATPlite Luminescence Assay; format: cell-based, human; conditions: human, HepG2 or HepG2.117 cells, 3-days incubation unless marked with *
In short: as §1

[4] = Hepatitis B virus, HepG2.117, 72 h

| SMILES | HLM Metabolism t1/2 [1] | CC50 (HepG2 or HepG2.117 cells) | EC50 [2] | half-life at 1 μM [1] | CC50 at 3 days [3] | EC50 [2, 4] |
| --- | --- | --- | --- | --- | --- | --- |
| C[C@@H]1Cc2nn3c(c2CN1C(=O)c1ccc(Cl)c(C(F)(F)F)c1)C(=O)N([C@@H](C)c1ccc([S@@](C)(=O)=NC#N)cc1)C[C@H]3C (relative stereo) [Compound 20C, N—((R*)-(4-((S*)-1-((3R,7R)-2-(4-chloro-3-(trifluoromethyl)benzoyl)-3,7-dimethyl-10-oxo-1,3,4,7,8,10-hexahydropyrido[4′,3′:3,4]pyrazolo[1,5-a]pyrazin-9(2H)-yl)ethyl)phenyl)(methyl)(oxo)-16-sulfaneylidene)cyanamide] | 61.5 min | > 50 µM | 0.016 µM |  |  |  |
| CC(c1ccnc(Cl)c1)N1C[C@@H](C)n2nc3c(c2C1=O)CN(C(=O)c1ccc(Cl)c(Cl)c1)[C@H](C)C3 (single isomer, unassigned) [Compound 31B, (3R,7R)-9-((S*)-1-(2-chloropyridin-4-yl)ethyl)-2-(3,4-dichlorobenzoyl)-3,7-dimethyl-1,2,3,4,8,9-hexahydropyrido[4′,3′:3,4]pyrazolo[1,5-a]pyrazin-10(7H)-one] | 127 min | 22.7 µM | 0.019 µM |  |  |  |
| CC(c1ccc(C(C)(C)O)nc1)N1C[C@@H](C)n2nc3c(c2C1=O)CN(C(=O)c1cc(C(F)(F)F)c(Cl)cn1)[C@H](C)C3 (single isomer, unassigned) [Compound 58B, (3R,7R)-2-(5-chloro-4-(trifluoromethyl)picolinoyl)-9-((S*)-1-(6-(2-hydroxypropan-2-yl)pyridin-3-yl)ethyl)-3,7-dimethyl-1,2,3,4,8,9-hexahydropyrido[4′,3′:3,4]pyrazolo[1,5-a]pyrazin-10(7H)-one] | >180 min | > 50 µM | 0.19 µM |  |  |  |
| CC(c1ccn(CC(F)(F)F)c(=O)c1)N1C[C@@H](C)n2nc3c(c2C1=O)CN(C(=O)c1ccc(Cl)c(Cl)c1)[C@H](C)C3 (single isomer, unassigned) [Compound 51A, (3R,7R)-2-(3,4-dichlorobenzoyl)-3,7-dimethyl-9-((R*)-1-(2-oxo-1-(2,2,2-trifluoroethyl)-1,2-dihydropyridin-4-yl)ethyl)-1,2,3,4,8,9-hexahydropyrido[4′,3′:3,4]pyrazolo[1,5-a]pyrazin-10(7H)-one] |  |  | 0.06 µM | > 180 min | > 50 µM |  |
| C[C@@H]1Cc2nn3c(c2CN1C(=O)c1ccc(Cl)c(C#N)c1)C(=O)N([C@@H](C)c1ccc(OC(F)F)cc1)CC3 [Ref 2, reference compound] |  |  |  | 37.8 min | > 50 µM | 0.03 µM |
| CNC(=O)c1ccc(C(C)N2C[C@@H](C)n3nc4c(c3C2=O)CN(C(=O)c2ccc(Cl)c(Cl)c2)[C@H](C)C4)cn1 (single isomer, unassigned) [Compound 24A, 5-((R*)-1-((3R,7R)-2-(3,4-dichlorobenzoyl)-3,7-dimethyl-10-oxo-1,3,4,7,8,10-hexahydropyrido[4′,3′:3,4]pyrazolo[1,5-a]pyrazin-9(2H)-yl)ethyl)-N-methylpicolinamide] |  |  |  | > 180 min | > 50 µM | 0.038 µM |
| CC(c1ccccn1)N1C[C@@H](C)n2nc3c(c2C1=O)CN(C(=O)c1ccc(Cl)c(Cl)c1)[C@H](C)C3 (single isomer, unassigned) [Compound 65A, (3R,7R)-2-(3,4-dichlorobenzoyl)-3,7-dimethyl-9-((R*)-1-(pyridin-2-yl)ethyl)-1,2,3,4,8,9-hexahydropyrido[4′,3′:3,4]pyrazolo[1,5-a]pyrazin-10(7H)-one] |  |  |  | 152 min | > 50 µM | 0.034 µM |
| CC(c1cnc(C(C)(C)O)nc1)N1C[C@@H](C)n2nc3c(c2C1=O)CN(C(=O)c1ccc(Cl)c(Cl)c1)[C@H](C)C3 (single isomer, unassigned) [Compound 36A, (3R,7R)-2-(3,4-Dichlorobenzoyl)-9-((R*)-1-(2-(2-hydroxypropan-2-yl)pyrimidin-5-yl)ethyl)-3,7-dimethyl-1,2,3,4,8,9-hexahydropyrido[4′,3′:3,4]pyrazolo[1,5-a]pyrazin-10(7H)-one] |  |  | 0.64 µM | > 180 min | > 50 µM |  |
| Cc1ncc(C(C)N2C[C@@H](C)n3nc4c(c3C2=O)CN(C(=O)c2ccc(Cl)c(Cl)c2)[C@H](C)C4)cn1 (single isomer, unassigned) [Compound 4A, (3R,7R)-2-(3,4-dichlorobenzoyl)-3,7-dimethyl-9-((R*)-1-(2-methylpyrimidin-5-yl)ethyl)-1,2,3,4,8,9-hexahydropyrido[4′,3′:3,4]pyrazolo[1,5-a]pyrazin-10(7H)-one] |  |  | 0.28 µM | > 180 min | > 50 µM |  |
| CN=[S@@](C)(=O)c1ccc([C@@H](C)N2C[C@@H](C)n3nc4c(c3C2=O)CN(C(=O)c2ccc(Cl)c(Cl)c2)[C@H](C)C4)cn1 (relative stereo) [Compound 29B, (3R,7R)-2-(3,4-dichlorobenzoyl)-9-((R*)-1-(6-((S*)—N,S-dimethylsulfonimidoyl)pyridin-3-yl)ethyl)-3,7-dimethyl-1,2,3,4,8,9-hexahydropyrido[4′,3′:3,4]pyrazolo[1,5-a]pyrazin-10(7H)-one] |  |  |  | > 180 min | > 50 µM | 0.81 µM |
| CC(c1ncccn1)N1C[C@@H](C)n2nc3c(c2C1=O)CN(C(=O)c1ccc(Cl)c(Cl)c1)[C@H](C)C3 (single isomer, unassigned) [Compound 39A, (3R,7R)-2-(3,4-dichlorobenzoyl)-3,7-dimethyl-9-((R*)-1-(pyrimidin-2-yl)ethyl)-1,2,3,4,8,9-hexahydropyrido[4′,3′:3,4]pyrazolo[1,5-a]pyrazin-10(7H)-one] |  |  | 0.13 µM | 95.2 min | > 50 µM |  |
| CC(c1nnc(C2CC2)o1)N1C[C@@H](C)n2nc3c(c2C1=O)CN(C(=O)c1ccc(Cl)c(Cl)c1)[C@H](C)C3 (single isomer, unassigned) [Compound 44A, (3R,7R)-9-((R*)-1-(5-cyclopropyl-1,3,4-oxadiazol-2-yl)ethyl)-2-(3,4-dichlorobenzoyl)-3,7-dimethyl-1,2,3,4,8,9-hexahydropyrido[4′,3′:3,4]pyrazolo[1,5-a]pyrazin-10(7H)-one] |  |  | 0.22 µM | > 180 min | > 50 µM |  |
| CC(c1ccc(C(C)(C)O)nc1)N1C[C@@H](C)n2nc3c(c2C1=O)CN(C(=O)c1cc(Cl)c(Cl)cn1)[C@H](C)C3 (single isomer, unassigned) [Compound 57A, (3R,7R)-2-(4,5-dichloropicolinoyl)-9-((R*)-1-(6-(2-hydroxypropan-2-yl)pyridin-3-yl)ethyl)-3,7-dimethyl-1,2,3,4,8,9-hexahydropyrido[4′,3′:3,4]pyrazolo[1,5-a]pyrazin-10(7H)-one] |  |  | > 2.5 µM | > 180 min | > 50 µM |  |
| CC(c1ccc(-n2cncn2)cc1)N1C[C@@H](C)n2nc3c(c2C1=O)CN(C(=O)c1ccc(Cl)c(C#N)c1)[C@H](C)C3 (single isomer, unassigned) [Compound 11A, 5-((3R,7R)-9-((R*)-1-(4-(1H-1,2,4-Triazol-1-yl)phenyl)ethyl)-3,7-dimethyl-10-oxo-1,2,3,4,7,8,9,10-octahydropyrido[4′,3′:3,4]pyrazolo[1,5-a]pyrazine-2-carbonyl)-2-chlorobenzonitrile] |  |  |  | > 180 min | > 50 µM | 0.039 µM |
| C[C@@H]1Cc2nn3c(c2CN1C(=O)c1ccc(Cl)c(C#N)c1)C(=O)N([C@H](C)c1ccc(OC(F)F)cc1)C[C@H]3C (relative stereo) [Compound 1C, 2-Chloro-5-((3R,7R*)-9-((R*)-1-(4-(difluoromethoxy)phenyl)ethyl)-3,7-dimethyl-10-oxo-1,2,3,4,7,8,9,10-octahydropyrido[4′,3′:3,4]pyrazolo[1,5-a]pyrazine-2-carbonyl)benzonitrile] |  |  |  | > 180 min | > 50 µM | 0.044 µM |
| Cc1nnn(-c2ccc(C(C)N3C[C@@H](C)n4nc5c(c4C3=O)CN(C(=O)c3ccc(Cl)c(Cl)c3)[C@H](C)C5)cn2)n1 (single isomer, unassigned) [Compound 26A, (3R,7R)-2-(3,4-dichlorobenzoyl)-3,7-dimethyl-9-((R*)-1-(6-(5-methyl-2H-tetrazol-2-yl)pyridin-3-yl)ethyl)-1,2,3,4,8,9-hexahydropyrido[4′,3′:3,4]pyrazolo[1,5-a]pyrazin-10(7H)-one] |  |  | 0.14 µM | 82.9 min | > 50 µM |  |
| CN=[S@](C)(=O)c1ccc([C@@H](C)N2C[C@@H](C)n3nc4c(c3C2=O)CN(C(=O)c2ccc(Cl)c(Cl)c2)[C@H](C)C4)cn1 (relative stereo) [Compound 29A, (3R,7R)-2-(3,4-dichlorobenzoyl)-9-((R*)-1-(6-((R*)—N,S-dimethylsulfonimidoyl)pyridin-3-yl)ethyl)-3,7-dimethyl-1,2,3,4,8,9-hexahydropyrido[4′,3′:3,4]pyrazolo[1,5-a]pyrazin-10(7H)-one] |  |  |  | 102 min | > 50 µM | 0.74 µM |
